# Values of other authors, collected in patent US6902746B2, “Oral pharmaceutical compositions containing non-steroidal anti-inflammatory drugs and method for preparing the same” (Yung Shin Pharmaceutical Industrial Co., Ltd., priority 2002, dated 2005).
# Assays:
# [1] = tested on: M.K. and δ opioid receptors
# [2] = animal studies; fraction of the effect of ketorolac tromethamine
# [3] = animal studies; fraction of the effect of ketorolac tromethamine; remark: listed apart in the source
# platelet aggregation = details: in vitro; fraction of the activity of ketorolac tromethamine
# [4] = in vivo
compound,measurement,setting,value
O=C(c1ccccc1)c1ccc2n1CCC2C(=O)O (stereo not shown) [ketorolac],binding to opioid receptors,[1],does not bind
O=C(c1ccc(O)cc1)c1ccc2n1CCC2C(=O)O (stereo not shown) [p-hydroxyketorolac],analgesic effect relative to ketorolac tromethamine,[2],1/100
same,anti-inflammatory effect relative to ketorolac tromethamine,[3],less than ⅕
same,anti-platelet aggregation activity relative to ketorolac tromethamine,platelet aggregation,1/25
"(±)-5-benzoyl-2,3-dihydro-1H-pyrrolizine-1-carboxylic acid 2-amino-2-(hydroxymethyl)-1,3-propanediol [Ketorolac tromethamine]",plasma half-lives,[4]; human,markedly prolonged
same,total clearance,[4]; human,decreased
same,administered drug eliminated in the urine,[4],about 75%
same,"administered drug, in its original form, found in the feces",[4],About 6%
same,bound to plasma proteins,[4],about 99%
same,mean elimination half-live,[4],5.3 h
same,mean volume of distribution at steady state,[4],0.11 L/kg
same,mean volume of distribution during the elimination phase,[4],0.17 to 0.25 L/kg
same,absorption in the presence of antacids,[4]; po,not affected
